Tested on: 610 metabolites from 63 biochemical pathways
Experiment: Targeted broad-spectrum plasma metabolomic analysis (LC-MS/MS), paired pre-infusion vs post-infusion (2-days and 6-weeks)
Type: in vivo, human
Details: for Linear Ratio / VIP Score / Z Abs / Z Score: plasma
Description: Targeted, broad-spectrum, plasma metabolomic analysis of 610 metabolites from 63 biochemical pathways was performed by high performance liquid chromatography and tandem mass spectrometry (LC-MS/MS) on the samples collected from patients in Example 1. Venous blood was collected between the hours of 8 am and 5 pm, at least 3 hours after the last meal, into lithium-heparin vacutainer tubes (BD #367884). Plasma was separated by centrifugation at 900 g×10 minutes at room temperature within one hour of collection. The resulting fresh lithium-heparin plasma was transferred to labeled 1.2 ml or 2.0 ml externally threaded cryotubes with a minimum headspace air gap for storage at −80° C. for analysis. Samples were analyzed on an AB SCIEX QTRAP 5500 triple quadrupole mass spectrometer equipped with a Turbo V electrospray ionization (ESI) source, Shimadzu LC-20A UHPLC system, and a PAL CTC autosampler. Typically, 90 μl of plasma was thawed on ice and transferred to a 1.7 ml Eppendorf tube. Five (5.0) μl of a cocktail containing 25-35 commercial stable isotope internal standards, and 5.0 μl of 57 stable isotope internal standards that were custom-synthesized in E. coli NCM3722, Caenorhabditis elegans N2, and Komagataella phaffii (ATCC 76273; formerly known as Pichia pastoris) by metabolic labeling with 13C-glucose and 13C-bicarbonate, were added, mixed, and incubated for 10 min at 20° C. to permit small molecules and vitamins in the internal standards to associate with plasma binding proteins. Macromolecules (protein, DNA, RNA, glycans, etc.) were precipitated by extraction with 4 volumes (400 μl) of cold (−20° C.), acetonitrile:methanol (50:50) (LCMS grade, Cat #LC015-2.5 and GC230-4, Burdick & Jackson, Honeywell), vortexed vigorously, and incubated on crushed ice for 10 min, then removed by centrifugation at 16,000 g×10 min at 4° C. The supernatants containing the extracted metabolites and internal standards in the resulting 40:40:20 solvent mix of acetonitrile:methanol:water were transferred to labeled cryotubes and stored at −80° C. for LCMS/MS analysis.
LC-MS/MS analysis was performed by scheduled multiple reaction monitoring (sMRM) under Analyst v1.6.2 software control in both negative and positive mode with rapid polarity switching (50 ms). Nitrogen was used for curtain gas (set to 30), collision gas (set to high), ion source gas 1 and 2 (set to 35). The source temperature was 500° C. Spray voltage was set to −4500 V in negative mode and 5500 V in positive mode. The values for Q1 and Q3 mass-to-charge ratios (m/z), declustering potential (DP), entrance potential (EP), collision energy (CE), and collision cell exit potential (CXP) were determined and optimized for each MRM for each metabolite. Ten microliters of extract was injected by PAL CTC autosampler via a 10 μl stainless steel loop into a 250 mm×2.0 mm, 4 μm polymer based NH2 HPLC column (Asahipak NH2P-40 2E, Showa Denko America, Inc., NY) held at 25° C. for chromatographic separation. The mobile phase was solvent A: 95% water with 20 mM (NH4)2CO3 (Sigma, Fluka Cat #74415-250G-F), 5% acetonitrile, and 38 mM NH4OH (Sigma, Fluka Cat #17837-100ML), final pH 9.75; solvent B: 100% acetonitrile. Separation was achieved using the following gradient: 0-3.5 min: 95% B, 3.6-8 min: 85% B, 8.1-13 min: 75% B, 13.5-35 min: 0% B, 36-46 min: 95% B, 46.1 min: end. The flow rate was 200 μl/min. Pump pressures ranged from 920-2600 psi over the course of the gradient. All the samples were kept at 4° C. during analysis. The chromatographic peaks were identified using MultiQuant (v3.0, Sciex), confirmed by manual inspection, and the peak areas integrated. […]

[1] = Fatty Acid Oxidation and Synthesis, 6-weeks
[2] = GABA, Glutamate, Arginine, Ornithine, Proline, 6-weeks
[3] = GABA, Glutamate, Arginine, Ornithine, 2-days
[4] = Gamma-Glutamyl and other Dipeptides, 2-days
[5] = Gamma-Glutamyl and other Dipeptides, 6-weeks
[6] = Gamma-glutamyl-Alanine, 6-weeks
[7] = Glycolysis and Gluconeogenesis Metabolism, 2-days
[8] = Glycolysis and Gluconeogenesis Metabolism, 6-weeks
[9] = Glycosphingolipid Metabolism, 2-days
[10] = Hexose Disaccharide Pool, 6-weeks
[11] = Histidine, Histamine, Carnosine Metabolism, 2-days
[12] = Histidine, Histamine, Carnosine Metabolism, 6-weeks
[13] = Nitric Oxide, Superoxide, Peroxide Metabolism, 6-weeks
[14] = Nitric Oxide, Superoxide, Peroxide, 2-days
[15] = Phospholipid Metabolism, 2-days
[16] = Phospholipid Metabolism, 6-weeks

Cc1ccc(C(=O)Nc2ccc(S(=O)(=O)O)c3cc(S(=O)(=O)O)cc(S(=O)(=O)O)c23)cc1NC(=O)c1cccc(NC(=O)Nc2cccc(C(=O)Nc3cc(C(=O)Nc4ccc(S(=O)(=O)O)c5cc(S(=O)(=O)O)cc(S(=O)(=O)O)c45)ccc3C)c2)c1 [Suramin, suramin]
Increased [1]: 0
Observed Hits in the Top 48 Metabolites [1]: 3
Decreased [2]: 0
Fold Enrichment (Obs/Exp) [2]: 3.0
Fraction of Impact (VIP Score) Explained (% of 94.6) [2]: 4%
Impact (Sum VIP Score) [2]: 3.9
Increased [2]: 2
Observed Hits in the Top 48 Metabolites [2]: 2
Decreased [3]: 0
Fold Enrichment (Obs/Exp) [3]: 3.5
Fraction of Impact (VIP Score) Explained (% of 119.7) [3]: 4%
Impact (Sum VIP Score) [3]: 4.7
Increased [3]: 3
Observed Hits in the Top 61 Metabolites [3]: 3
Decreased [4]: 0
Fold Enrichment (Obs/Exp) [4]: 7.1
Fraction of Impact (VIP Score) Explained (% of 119.7) [4]: 3%
Impact (Sum VIP Score) [4]: 3.8
Increased [4]: 2
Observed Hits in the Top 61 Metabolites [4]: 2
Decreased [5]: 0
Fold Enrichment (Obs/Exp) [5]: 4.5
Fraction of Impact (VIP Score) Explained (% of 94.6) [5]: 2%
Impact (Sum VIP Score) [5]: 2.4
Increased [5]: 1
Observed Hits in the Top 48 Metabolites [5]: 1
Linear Ratio [6]: 1.644
VIP Score [6]: 2.353
Z Abs [6]: 1.725
Z Score [6]: 1.725
Linear Ratio (Glycerol 3-phosphate, 6-weeks): 1.294
VIP Score (Glycerol 3-phosphate, 6-weeks): 2.081
Z Abs (Glycerol 3-phosphate, 6-weeks): 1.731
Z Score (Glycerol 3-phosphate, 6-weeks): 1.731
Linear Ratio (Glycine, 6-weeks): 1.392
VIP Score (Glycine, 6-weeks): 2.523
Z Abs (Glycine, 6-weeks): 1.891
Z Score (Glycine, 6-weeks): 1.891
Linear Ratio (Glycocholic acid, 6-weeks): 2.270
VIP Score (Glycocholic acid, 6-weeks): 1.956
Z Abs (Glycocholic acid, 6-weeks): 1.945
Z Score (Glycocholic acid, 6-weeks): 1.945
Decreased [7]: 0
Fold Enrichment (Obs/Exp) [7]: 2.0
Fraction of Impact (VIP Score) Explained (% of 119.7) [7]: 4%
Impact (Sum VIP Score) [7]: 4.3
Increased [7]: 2
Observed Hits in the Top 61 Metabolites [7]: 2
Decreased [8]: 0
Fold Enrichment (Obs/Exp) [8]: 1.3
Fraction of Impact (VIP Score) Explained (% of 94.6) [8]: 2%
Impact (Sum VIP Score) [8]: 2.1
Increased [8]: 1
Observed Hits in the Top 48 Metabolites [8]: 1
Decreased [9]: 0
Fold Enrichment (Obs/Exp) [9]: 0.6
Fraction of Impact (VIP Score) Explained (% of 119.7) [9]: 2%
Impact (Sum VIP Score) [9]: 2.1
Increased [9]: 1
Observed Hits in the Top 61 Metabolites [9]: 1
Linear Ratio (Guanidinoacetic acid, 6-weeks): 1.217
VIP Score (Guanidinoacetic acid, 6-weeks): 1.644
Z Abs (Guanidinoacetic acid, 6-weeks): 1.254
Z Score (Guanidinoacetic acid, 6-weeks): 1.254
Linear Ratio [10]: 2.121
VIP Score [10]: 1.911
Z Abs [10]: 1.220
Z Score [10]: 1.220
Linear Ratio (Hippuric acid, 6-weeks): 1.602
VIP Score (Hippuric acid, 6-weeks): 1.559
Z Abs (Hippuric acid, 6-weeks): 0.881
Z Score (Hippuric acid, 6-weeks): 0.881
Linear Ratio (Histamine, 6-weeks): 1.219
VIP Score (Histamine, 6-weeks): 2.279
Z Abs (Histamine, 6-weeks): 1.312
Z Score (Histamine, 6-weeks): 1.312
Decreased [11]: 0
Fold Enrichment (Obs/Exp) [11]: 1.8
Fraction of Impact (VIP Score) Explained (% of 119.7) [11]: 2%
Impact (Sum VIP Score) [11]: 1.8
Increased [11]: 1
Observed Hits in the Top 61 Metabolites [11]: 1
Decreased [12]: 0
Fold Enrichment (Obs/Exp) [12]: 2.2
Fraction of Impact (VIP Score) Explained (% of 94.6) [12]: 2%
Impact (Sum VIP Score) [12]: 2.3
Increased [12]: 1
Observed Hits in the Top 48 Metabolites [12]: 1
Linear Ratio (Hydroxyproline, 6-weeks): 1.210
VIP Score (Hydroxyproline, 6-weeks): 2.039
Z Abs (Hydroxyproline, 6-weeks): 3.005
Z Score (Hydroxyproline, 6-weeks): 3.005
Decreased (Krebs Cycle, 2-days): 0
Fold Enrichment (Obs/Exp) (Krebs Cycle, 2-days): 1.6
Fraction of Impact (VIP Score) Explained (% of 119.7) (Krebs Cycle, 2-days): 3%
Impact (Sum VIP Score) (Krebs Cycle, 2-days): 3.3
Increased (Krebs Cycle, 2-days): 2
Observed Hits in the Top 61 Metabolites (Krebs Cycle, 2-days): 2
Decreased (Krebs Cycle, 6-weeks): 0
Fold Enrichment (Obs/Exp) (Krebs Cycle, 6-weeks): 2.0
Fraction of Impact (VIP Score) Explained (% of 94.6) (Krebs Cycle, 6-weeks): 5%
Impact (Sum VIP Score) (Krebs Cycle, 6-weeks): 4.3
Increased (Krebs Cycle, 6-weeks): 2
Observed Hits in the Top 48 Metabolites (Krebs Cycle, 6-weeks): 2
Linear Ratio (L-Asparagine, 6-weeks): 1.360
VIP Score (L-Asparagine, 6-weeks): 1.824
Z Abs (L-Asparagine, 6-weeks): 1.581
Z Score (L-Asparagine, 6-weeks): 1.581
Linear Ratio (L-Cystine, 6-weeks): 1.190
VIP Score (L-Cystine, 6-weeks): 1.774
Z Abs (L-Cystine, 6-weeks): 1.060
Z Score (L-Cystine, 6-weeks): 1.060
Linear Ratio (L-Kynurenine, 6-weeks): 1.303
VIP Score (L-Kynurenine, 6-weeks): 2.096
Z Abs (L-Kynurenine, 6-weeks): 1.751
Z Score (L-Kynurenine, 6-weeks): 1.751
Linear Ratio (L-Phenylalanine, 6-weeks): 1.245
VIP Score (L-Phenylalanine, 6-weeks): 1.875
Z Abs (L-Phenylalanine, 6-weeks): 1.381
Z Score (L-Phenylalanine, 6-weeks): 1.381
Linear Ratio (L-Proline, 6-weeks): 1.196
VIP Score (L-Proline, 6-weeks): 1.546
Z Abs (L-Proline, 6-weeks): 0.749
Z Score (L-Proline, 6-weeks): 0.749
Linear Ratio (L-Serine, 6-weeks): 1.152
VIP Score (L-Serine, 6-weeks): 1.505
Z Abs (L-Serine, 6-weeks): 0.954
Z Score (L-Serine, 6-weeks): 0.954
Linear Ratio (Lathosterol, 6-weeks): 1.284
VIP Score (Lathosterol, 6-weeks): 1.844
Z Abs (Lathosterol, 6-weeks): 1.079
Z Score (Lathosterol, 6-weeks): 1.079
Linear Ratio (Methionine sulfoxide, 6-weeks): 1.409
VIP Score (Methionine sulfoxide, 6-weeks): 2.104
Z Abs (Methionine sulfoxide, 6-weeks): 2.083
Z Score (Methionine sulfoxide, 6-weeks): 2.083
Linear Ratio (Mevalonic acid, 6-weeks): 1.386
VIP Score (Mevalonic acid, 6-weeks): 1.673
Z Abs (Mevalonic acid, 6-weeks): 1.036
Z Score (Mevalonic acid, 6-weeks): 1.036
Decreased (Microbiome Metabolism, 2-days): 0
Fold Enrichment (Obs/Exp) (Microbiome Metabolism, 2-days): 1.6
Fraction of Impact (VIP Score) Explained (% of 119.7) (Microbiome Metabolism, 2-days): 8%
Impact (Sum VIP Score) (Microbiome Metabolism, 2-days): 9.3
Increased (Microbiome Metabolism, 2-days): 4
Observed Hits in the Top 61 Metabolites (Microbiome Metabolism, 2-days): 4
Decreased (Microbiome Metabolism, 6-weeks): 0
Fold Enrichment (Obs/Exp) (Microbiome Metabolism, 6-weeks): 2.0
Fraction of Impact (VIP Score) Explained (% of 94.6) (Microbiome Metabolism, 6-weeks): 9%
Impact (Sum VIP Score) (Microbiome Metabolism, 6-weeks): 8.4
Increased (Microbiome Metabolism, 6-weeks): 4
Observed Hits in the Top 48 Metabolites (Microbiome Metabolism, 6-weeks): 4
Decreased [13]: 0
Fold Enrichment (Obs/Exp) [13]: 4.5
Fraction of Impact (VIP Score) Explained (% of 94.6) [13]: 2%
Impact (Sum VIP Score) [13]: 2.2
Increased [13]: 1
Observed Hits in the Top 48 Metabolites [13]: 1
Decreased [14]: 1
Fold Enrichment (Obs/Exp) [14]: 3.5
Fraction of Impact (VIP Score) Explained (% of 119.7) [14]: 2%
Impact (Sum VIP Score) [14]: 1.9
Increased [14]: 0
Observed Hits in the Top 61 Metabolites [14]: 1
Linear Ratio (Octanoylcarnitine, 6-weeks): 0.703
VIP Score (Octanoylcarnitine, 6-weeks): 1.780
Z Abs (Octanoylcarnitine, 6-weeks): 1.451
Z Score (Octanoylcarnitine, 6-weeks): −1.451
Linear Ratio (PE (18:0/18:0), 6-weeks): 0.644
VIP Score (PE (18:0/18:0), 6-weeks): 1.555
Z Abs (PE (18:0/18:0), 6-weeks): 1.331
Z Score (PE (18:0/18:0), 6-weeks): −1.331
Decreased [15]: 3
Fold Enrichment (Obs/Exp) [15]: 0.3
Fraction of Impact (VIP Score) Explained (% of 119.7) [15]: 5%
Impact (Sum VIP Score) [15]: 5.7
Increased [15]: 0
Observed Hits in the Top 61 Metabolites [15]: 3
Decreased [16]: 1
Fold Enrichment (Obs/Exp) [16]: 0.1
Fraction of Impact (VIP Score) Explained (% of 94.6) [16]: 2%
Impact (Sum VIP Score) [16]: 1.6
Increased [16]: 0
Observed Hits in the Top 48 Metabolites [16]: 1
Decreased (Purine Metabolism, 2-days): 5
Fold Enrichment (Obs/Exp) (Purine Metabolism, 2-days): 2.4

Reference: patent US20190358181A1, “METHODS FOR AUTISM SPECTRUM DISORDER PHARMACOTHERAPY” (priority 2017, published 2019)
